Laboratory results reported in patent publication US12691070B2, “Cationic lipids and preparation method thereof” (RiboX Therapeutics HK Limited, priority 2023, dated 2026).

Assays:
[1] = LNP size and polydispersity index (PDI) by dynamic light scattering; format: physicochemical; settings: for Size: in nm (unit assumed)
Procedure, shortened: (§1)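 LNPs of ionizable lipid/DSPC/cholesterol/DMG-PEG 2000 (50:10:38.5:1.5) made by microfluidic mixing of luciferase circRNA or mRNA in pH 4.5 acetate with lipids in ethanol (3:1, 12 ml/min), ionizable lipid:nucleotide 15 or 6, then dialyzed against PBS. Size, PDI (DLS) and zeta potential on Zetasizer; encapsulation by Ribogreen ± Triton X-100.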

[2] = LNP zeta potential (Zetasizer); format: physicochemical
Procedure, shortened: as §1

[3] = RNA encapsulation efficacy by Quant-IT Ribogreen kit; format: physicochemical; settings: for Encapsulation Efficiency %: LNP with cirRNA (SEQ ID NO: 1); for Encapsulation Efficiency: LNP with mRNA (SEQ ID NO: 2)
Procedure, shortened: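 Ribogreen read-out: encapsulation = 100% − (signal of intact RNA-LNPs / signal with Triton X-100). Particles: ionizable lipid:DSPC:Chol:DMG-PEG2000 50:10:38.5:1.5, ionizable lipid:ribonucleotide 15 or 6, final lipid 1.5–6 mM, PBS-dialyzed.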

Hep G2 cells [4] = test: In vitro expression of firefly-luciferase, Hep G2; format: cell-based
Procedure, shortened: (§2)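 Both cell lines receive RNA-LNPs carrying firefly-luciferase RNA at 100 ng/mL. Lysis follows washing at 72 h post-transfection, and luciferase activity is then quantified on a luminometer using a commercial luciferase assay reagent.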

RAW 264.7 cells [5] = test: In vitro expression of firefly-luciferase, RAW 264.7; format: cell-based
Procedure, shortened: as §2

Hep G2 cells [6] = test: In vitro toxicity (CellTiter-Glo cell viability), Hep G2; format: cell-based;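 also: percent of untreated cells luminescence signal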
Procedure, shortened: (§3)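 Cells were transfected with RNA-LNPs at 1 μg/mL and, 72 hours later, viability was measured by CellTiter-Glo luminescence. Values are cell viability calculated from the luminescence signal.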

RAW 264.7 cells [7] = test: In vitro toxicity (CellTiter-Glo cell viability), RAW 264.7; format: cell-based;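 also: percent of untreated cells luminescence signal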
Procedure, shortened: as §3

BALB/C mice [8] = test: In vivo expression, whole-body luminescence (IVIS)
Procedure: 6-8 week old, female BALB/C mice were injected with 0.05 mg*kg-1 of RNA-LNPs encoding for firefly-luciferase by intravenous injection. At 6 hours post injection, animals were intraperitoneally injected with 15 mg/ml of Luciferin substrate and whole-body luminescence was determined by a bioluminescent in vivo imaging system (IVIS).

[9] = Long term stability analysis / stability under LNP synthesis conditions (Ethanol and PBS pH=7.4); format: physicochemical; settings: after incorporation into lipid nanoparticles / LNP synthesis conditions
Procedure: The purity of the lipids was tested, after they were incorporated into lipid nanoparticles, only to find that the Reference Lipids were cleaved under LNP synthesis conditions, either via transesterification or hydrolysis.

MCP-I = MCP-I cytokine elevation in serum; format: in vivo; settings: cirRNA (SEQ ID NO: 1) LNPs, mice
Procedure: 6-8 week old, female BALB/C mice were injected with 0.5 mg*kg-1 of RNA LNPs by intravenous injection. At 2 and 24 hours post injection, animals were bled and sera concentrations of MCP-I were determined by an immunoassay (Luminex).

[10] = test system: Alanine Aminotransferase (ALT); test: Liver enzyme elevation in serum, ALT; format: in vivo; settings: cirRNA (SEQ ID NO: 1) LNPs, BALB/C mice, intravenous 0.5 MPK
Procedure: (§4) 6-8 week old, female BALB/C mice were injected with 0.5 mg*kg-1 of RNA LNPs by intravenous injection. At 2 and 24 hours post injection, animals were bled and sera concentrations of Alanine Aminotransferase (ALT) and Aspartate Aminotransferase (AST) were determined by a blood chemistry analyzer.

[11] = test system: Aspartate Aminotransferase (AST); test: Liver enzyme elevation in serum, AST; format: in vivo; settings: cirRNA (SEQ ID NO: 1) LNPs, BALB/C mice, intravenous 0.5 MPK
Procedure: as §4

BALB/C mice [12] = test: Local tolerance determination by footpad injection; format: in vivo; settings: cirRNA (SEQ ID NO: 1) LNP, 0.175 mg*kg-1 subcutaneous into the footpad, 24 hours post minus prior
Procedure: 6-8 week old, female BALB/C mice were injected with 0.175 mg*kg-1 RNA LNPs by subcutaneous injection into the footpad. Prior to, and 24 hours post injections, injected footpad thickness was determined by a caliper.

[13] = cirRNA (SEQ ID NO: 1) LNPs, firefly-luciferase luminescence, Hep G2 cells
[14] = mRNA (SEQ ID NO: 2) LNP, 100 ng/mL, 72 hours post transfection, luciferase activity
[15] = mRNA (SEQ ID NO: 2) LNP, 1 μg/mL, 72 hours post transfection
[16] = mRNA (SEQ ID NO: 2) LNP, 0.05 mg*kg-1 intravenous, 6 hours post injection
[17] = cirRNA (SEQ ID NO: 1) LNPs, firefly-luciferase luminescence, RAW 264.7 cells
[18] = cirRNA (SEQ ID NO: 1) LNPs, Hep G2 cells
[19] = cirRNA (SEQ ID NO: 1) LNPs, RAW 264.7 cells
[20] = cirRNA (SEQ ID NO: 1) LNPs, BALB/C mice

Row | SMILES | PDI ([1]; LNP with cirRNA (SEQ ID NO: 1)) | Size ([1]; LNP with cirRNA (SEQ ID NO: 1)) | PDI ([1]; LNP with mRNA (SEQ ID NO: 2)) | Size ([1]; LNP with mRNA (SEQ ID NO: 2)) | Zeta (mV) ([2]; LNP with cirRNA (SEQ ID NO: 1)) | Zeta (mV) ([2]; LNP with mRNA (SEQ ID NO: 2)) | Encapsulation Efficiency % [3] | Encapsulation Efficiency [3] | In vitro Expression HepG2 (Hep G2 cells [4]; [13]) | In vitro Expression HepG2 (Hep G2 cells [4]; [14]) | In vitro Expression RAW (RAW 264.7 cells [5]; [14]) | In vitro Viability HepG2 (Hep G2 cells [6]; [15]) | In vitro Viability RAW (RAW 264.7 cells [7]; [15]) | In vivo Expression (Whole Body) (BALB/C mice [8]; [16]) | In vitro Expression RAW (RAW 264.7 cells [5]; [17]) | In vitro Viability HepG2 (Hep G2 cells [6]; [18]) | In vitro Viability RAW (RAW 264.7 cells [7]; [19]) | In vivo Expression (Whole Body) (BALB/C mice [8]; [20]) | MCP-I in Sera 2 hours After 0.5 MPK Injection (MCP-I) | ALT in Sera (IU/L) 2 hours After 0.5 MPK Injection [10] | further results
1 | CCCCC/C=C\CCOC(=O)CCCCCCCN(CCCCCCCC(=O)OCC/C=C\CCCCC)CCOC(=O)CCCN(C)C [Lipid C, reference compound] | 0.1152 | 118.3 | 0.08023 | 139.5 | −1.304 mV | 8.776 mV | 74% | 84.38% | 8.20E+02 | 1.03E+04 | 4.63E+05 | 103% | 88% | 4.72E+05 |  |  |  |  |  |  | Stability of the lipid (cleavage, hydrolysis) [9]: extensive hydrolysis of the ester moiety
2 | CCCCCCCCCCC(CCCCCCCC)COC(=O)CCCCCN(CCCCCC(=O)OCC(CCCCCCCC)CCCCCCCCCC)CCCOC(=O)NCCN1CCCCC1 (stereo not drawn) [Lipid 370] | 0.08162 | 90.63 | 0.1494 | 112.8 | 0.1617 mV | 0.9875 mV | 97% | 93.87% | 2.65E+07 | 6.38E+07 | 3.26E+07 | 94% | 107% | 3.37E+08 | 1.98E+06 | 93% | 96% | 3.68E+08 | 4872.33 pg/mL | 102.00 IU/L | MCP-I in Sera 24 hours After 0.5 MPK Injection (MCP-I): 1652.33 pg/mL; ALT in Sera (IU/L) 24 hours After 0.5 MPK Injection [10]: 123.00 IU/L; AST in Sera (IU/L) 2 hours After 0.5 MPK Injection [11]: 276.33 IU/L; AST in Sera (IU/L) 24 hours After 0.5 MPK Injection [11]: 413.33 IU/L; Footpad Thickness (24 h−0 h, mm) (BALB/C mice [12]): 0.50 mm
3 | CCCCC/C=C\C/C=C\CCCCCCCCN(CCCCCCCC(=O)OC(CCCCCCCC)CCCCCCCC)CCOC(=O)NCCN1CCCC1 [Lipid 128, heptadecan-9-yl 8-(((9Z,12Z)-octadeca-9,12-dien-1-yl)(2-(((2-(pyrrolidin-1-yl)ethyl)carbamoyl)oxy)ethyl)amino)octanoate] | 0.1 | 93.54 | 0.1021 | 75.38 | 0.282 mV | 6.141 mV | 94% | 91% | 4.01E+06 | 2.16E+07 | 1.72E+06 | 94% | 92% | 6.98E+08 | 5.15E+06 | 103% | 59% | 5.46E+08 | 6355.24 pg/mL | 58.17 IU/L | MCP-I in Sera 24 hours After 0.5 MPK Injection (MCP-I): 318.11 pg/mL; ALT in Sera (IU/L) 24 hours After 0.5 MPK Injection [10]: 56.00 IU/L; AST in Sera (IU/L) 2 hours After 0.5 MPK Injection [11]: 195.53 IU/L; AST in Sera (IU/L) 24 hours After 0.5 MPK Injection [11]: 131.30 IU/L; Footpad Thickness (24 h−0 h, mm) (BALB/C mice [12]): 0.98 mm
4 | CCCCCCCCCC(=O)OCCCCCCCN(CCCCCCCCOC(=O)C(CCCCCC)CCCCCCCC)CCOC(=O)NCCN1CCCC1 (stereo not drawn) [Lipid 195] | 0.2474 | 94.75 | 0.1254 | 114.3 | 6.123 mV | 16.37 mV | 94% | 75.44% | 1.62E+05 | 1.23E+07 | 1.67E+07 | 116% | 77% | 1.63E+08 | 9.03E+03 | 103% | 96% | 3.91E+07 | 2643.00 pg/mL | 109.00 IU/L | MCP-I in Sera 24 hours After 0.5 MPK Injection (MCP-I): 78.52 pg/mL; ALT in Sera (IU/L) 24 hours After 0.5 MPK Injection [10]: 35.00 IU/L; AST in Sera (IU/L) 2 hours After 0.5 MPK Injection [11]: 264.00 IU/L; AST in Sera (IU/L) 24 hours After 0.5 MPK Injection [11]: 84.67 IU/L; Footpad Thickness (24 h−0 h, mm) (BALB/C mice [12]): 0.56 mm
5 | CCCCC/C=C\C/C=C\CCCCCCCCN(CCCCCCCC/C=C\CCCCCCCC)CCOC(=O)NCc1ncc[nH]1 [Lipid 68, 2-(((Z)-octadec-9-en-1-yl)((9Z,12Z)-octadeca-9,12-dien-1-yl)amino)ethyl ((1H-imidazol-2-yl)methyl)carbamate] | 0.12 | 57.94 | 0.1057 | 61.9 | −0.647 mV | 5.641 mV | 92% | 88% | 2.63E+06 | 3.74E+03 | 5.58E+02 | 100% | 104% | 1.54E+08 | 6.86E+05 | 99% | 67% | 1.34E+08 | 129.34 pg/mL | 40.77 IU/L | ALT in Sera (IU/L) 24 hours After 0.5 MPK Injection [10]: 33.37 IU/L; AST in Sera (IU/L) 2 hours After 0.5 MPK Injection [11]: 81.27 IU/L; AST in Sera (IU/L) 24 hours After 0.5 MPK Injection [11]: 60.20 IU/L; Footpad Thickness (24 h−0 h, mm) (BALB/C mice [12]): 1.00 mm
